Laboratory results taken from the supplement of paper PMC11368000.

What was measured:
Conditions in all cases: exposure time: 90 min
20032 = donor line of iPSC-derived cardiomyocytes; test: POD (EC05) for increase in beat frequency (positive chronotrope) vs vehicle; higher = less potent (higher point of departure)
Protocol: (§1)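 Human iPSC-derived cardiomyocytes from 16 donors were exposed for 90 min at 37 °C to each PFAS at 0.1, 1, 10 and 100 µM in 0.5% DMSO, 384-well plates. Kinetic Ca2+ flux (FLIPR) and Hoechst nuclei counts were normalised to vehicle wells and fitted with a hierarchical Bayesian Hill model to give donor-specific PODs: EC05 for beat-rate increase or decrease and for decay-to-rise ratio increase (QT proxy), EC95 for peak-frequency loss (asystole), EC10 for total cell number loss. 0.03 µM is the lower bound.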

1118 = donor line of iPSC-derived cardiomyocytes; test: as above
Protocol: as §1

1368 = donor line of iPSC-derived cardiomyocytes; test: as above
Protocol: as §1

1083 = donor line of iPSC-derived cardiomyocytes; test: as above
Protocol: as §1

30171 = donor line of iPSC-derived cardiomyocytes; test: as above
Protocol: as §1

11235 = donor line of iPSC-derived cardiomyocytes; test: as above
Protocol: as §1

20084 = donor line of iPSC-derived cardiomyocytes; test: as above
Protocol: as §1

1535 [1] = donor line of iPSC-derived cardiomyocytes; test: as above
Protocol: as §1

1392 = donor line of iPSC-derived cardiomyocytes; test: as above
Protocol: as §1

1518 [2] = donor line of iPSC-derived cardiomyocytes; test: as above
Protocol: as §1

1531 = donor line of iPSC-derived cardiomyocytes; test: as above
Protocol: as §1

1565 = donor line of iPSC-derived cardiomyocytes; test: as above
Protocol: as §1

1434 = donor line of iPSC-derived cardiomyocytes; test: as above
Protocol: as §1

1309 = donor line of iPSC-derived cardiomyocytes; test: as above
Protocol: as §1

1516 [3] = donor line of iPSC-derived cardiomyocytes; test: as above
Protocol: as §1

1535 [4] = test: POD (EC05) for increase in Ca2+ transient decay-to-rise ratio (QT prolongation) vs vehicle; higher = less potent (higher point of departure)
In short: (§2)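 Ca2+ flux in human iPSC-derived cardiomyocytes from 16 donors was recorded on a FLIPR Tetra for 100 s before and after a 90 min exposure at 37 °C to 0.1, 1, 10 and 100 µM (final, 0.5% DMSO). Donor-specific points of departure came from hierarchical Bayesian Hill fits to vehicle-normalised beat frequency, decay-to-rise ratio or peak frequency. A 5% change served as threshold, except for peak frequency, where it was a 95% loss.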

30145 = donor line of iPSC-derived cardiomyocytes; test: POD (EC05) for increase in beat frequency (positive chronotrope) vs vehicle; higher = less potent (higher point of departure)
Protocol: as §1

1518 [5] = test: POD (EC05) for increase in Ca2+ transient decay-to-rise ratio (QT prolongation) vs vehicle; higher = less potent (higher point of departure)
In short: as §2

1516 [6] = test: as above
In short: as §2

Measured: POD vs vehicle

NC(=O)C(F)(F)C(F)(F)C(F)(F)F [Heptafluorobutyramide]
> 100 µM: 20032 | 1118 | 1368 | 1083 | 30171 | 11235 | 20084 | 1535 [1] | 1392 | 1518 [2] | 1531 | 1565 | 1434 | 1309 | 1516 [3] | 1535 [4]

O=C(O)C(F)(F)OC(F)(F)C(F)(F)OC(F)(F)C(F)(F)OC(F)(F)C(F)(F)C(F)(F)C(F)(F)F [Perfluoro-3,6,9-trioxatridecanoic_acid]
> 100 µM: 20032 | 1118 | 1368 | 1083 | 30171 | 11235 | 20084 | 1535 [1] | 1392 | 30145 | 1518 [2] | 1531 | 1565 | 1434 | 1309 | 1516 [3] | 1535 [4] | 1518 [5]

O=C(O)C(F)(F)C(F)(F)C(F)(F)C(F)(F)C(F)(F)C(F)(F)F [Perfluoroheptanoic_acid]
> 100 µM: 20032 | 1118 | 1368 | 1083 | 30171 | 11235 | 20084 | 1535 [1] | 1392 | 30145 | 1518 [2] | 1531 | 1565 | 1434 | 1309 | 1516 [3] | 1535 [4]

NC(=O)C(F)(F)C(F)(F)C(F)(F)C(F)(F)C(F)(F)C(F)(F)C(F)(F)F [Perfluorooctanamide]
> 100 µM: 20032 | 1118 | 1368 | 1083 | 30171 | 11235 | 20084 | 1535 [1] | 1392 | 30145 | 1518 [2] | 1531 | 1565 | 1434 | 1309 | 1516 [3] | 1535 [4] | 1516 [6]

N=C(N)C(F)(F)C(F)(F)C(F)(F)C(F)(F)C(F)(F)C(F)(F)C(F)(F)F [Perfluorooctanamidine]
> 100 µM: 20032 | 1118 | 1368 | 1083 | 30171 | 11235 | 20084 | 1535 [1] | 1392 | 30145 | 1518 [2] | 1531 | 1565 | 1434 | 1309 | 1516 [3] | 1535 [4] | 1516 [6]
